Measured values as given in patent publication US4214095A, “Chlorobenzyl phenoxy alkoxylates” (Siegfried Aktiengesellschaft, priority 1979, dated 1980).
Structures can show the parent of a compound that is named as a salt. Where two headings read alike, the source gives them in different places.

Legend:
mice [1] = test: Acute oral toxicity (LD50) in mice; type: in vivo; conditions: conclusion from Table I
Procedure: (§1) The compounds of Examples I to VIII were tested to evaluate their pharmacological effectiveness. Specifically, their toxicity (LD50), cholesterol-lowering effectiveness (E1 D25) and their liver weight increasing activity (E2 D25) were tested on animals according to standard methods.
(§2) At least three different doses were tested for each LD50 value given and 10 animals were used for testing of each dose; five test animals were kept in one standard "Macrolon" cage. The test substance was administered as a suspension in aqueous (3-5% by weight) Gum Arabic via a probe into the stomach in quantities of 10 ml of the suspension per kilogram body weight. As is conventional, LD50 is that dose of the test substance in mg/kg body weight which causes death of 50% of the test animals within the observation period. Higher LD50 values indicate lower toxicity and vice versa.

[2] = Acute oral toxicity (LD50) in mice; type: in vivo; conditions: mouse, in vivo
Procedure: as §1, §2

[3] = tested on: cholesterol level in the blood serum; test: Cholesterol-lowering effectiveness (E1 D25) in rats; type: in vivo, male Whistar rats; conditions: for ED25: Rattus norvegicus, male Whistar rats, oral, daily, two weeks (5 + 5 days), vs control, read-out: E1 D25 (dose causing 25% reduction of average serum cholesterol level); for cholesterol lowering effectiveness (in words): conclusion from Table I
Procedure: as §1
(B) The effective dose E1 D25 is the amount of test substance in milligram per kilogram body weight of the test animals (male Whistar rats, 100-200 g body weight, eight to ten animals per dosis) that causes a 25% by weight reduction of the average cholesterol level in the blood serum of test animals that had received the test substance, compared with the cholesterol level in the blood serum of the control group. The test substances were administered orally via a probe in the manner set forth above for the LD50 toxicity, i.e. as suspension in aqueous Gum Arabic. Each test animal was administered daily with 10 ml of the suspension per kilogram body weight. The animals of the control group were administered daily with each 10 ml of the aqueous Gum Arabic per kilogram of body weight without the test substance. The daily dose was administered for 5 subsequent days, resumed after a two-day week-end interval and continued for 5 additional days. After a total test period of two weeks, both the test and the control animals were sacrificed and the blood serum was recovered from the bodies for analysis.
Cholesterol analysis of the serum recovered was carried out according to the standard method of M. Richterich (cf. Monography by M. Richterich, "Klinische Chemie," Verlag Karger, Basel/New York, 1965, p. 232) and the results were evaluated by means of a cholesterol level/dose diagram. The E1 D25 values were taken from the diagram thus obtained. Lower E1 D25 values indicate higher activity, and vice versa.

[4] = tested on: liver weight/body weight ratio (relative liver weight); design: species or system male Whistar rats; conditions: rat, in vivo
Procedure: as §1
(C) The effective dose E2 D25 is the amount of test substance in milligram per kilogram body weight of the test animals (male Whistar rats, 100-200 g body weight, eight to ten animals per dose) that causes a 25% increase of the liver weight/body weight ratio (relative liver weight) of test animals that had received that test substance, compared with the liver weight/body weight ratio of the control group. Administration was effected substantially in the manner described above for E1 D25. The relative liver weight was determined from the bodies of the sacrificed animals and the control animals. The actual increase of the relative liver weight was evaluated graphically and the E2 D25 was obtained by interpolation from the graph.

mice [5] = conditions: background section; cited from earlier work
[6] = mice, single oral dose, 7 days observation or longer, read-out: LD50

SMILES | LD50 at 168 h ([2]; po, read-out: LD50) | ED25 [3] | cholesterol lowering effectiveness (in words) [3] | other results
CCOC(=O)C(C)(CC)Oc1ccccc1Cc1ccc(Cl)cc1 (racemic) [Example I, ethyl D,L-2-methyl-2-[o-(p'-chlorobenzyl)-phenoxy]butyrate] | > 10000 mg/kg | ~10 mg/kg | high cholesterol lowering effectiveness | toxicity (in words) (mice [1]): low toxicity; liver enlargement activities (in words) [4]: low or very low liver enlargement activities
CCCC(C)(Oc1ccccc1Cc1ccc(Cl)cc1)C(=O)OCC (racemic) [Example II, ethyl D,L-2-methyl-2-[o-(p'-chlorobenzyl)-phenoxy]-valerate] | > 10000 mg/kg | ~40 mg/kg |  | 
CCC(C)(Oc1ccccc1Cc1ccc(Cl)cc1)C(=O)OCc1cccnc1 (racemic) [Example III, D,L-2-methyl-2-[o-(p'-chlorobenzyl)-phenoxy]-butyric acid-(3-oxymethyl-pyridine)-ester hydrochloride] | > 3000 mg/kg | ~10 mg/kg |  | 
CCOC(=O)C(C)(C)Oc1ccccc1Cc1ccc(Cl)cc1 [Example IV, ethyl 2-methyl-2-[o-(p'-chlorobenzyl)-phenoxy]propionate] | > 10000 mg/kg | ~90 mg/kg |  | 
CC(C)(Oc1ccccc1Cc1ccc(Cl)cc1)C(=O)OCc1cccnc1 [Example V, 2-methyl-2-[o-(p'-chlorobenzyl)-phenoxy]-propionic acid-(3-oxymethyl-pyridine)-ester hydrochloride] |  |  |  | LD50 at 168 h [2, 6]: > 3000 mg/kg
CCOC(=O)C(C)(CC)Oc1cccc(Cc2ccc(Cl)cc2)c1 (stereo not drawn) [Example VIII] |  | 40 mg/kg |  | 
CCOC(=O)C(C)Oc1ccccc1Cc1ccc(Cl)cc1 (stereo not drawn) [Example VII] | > 3000 mg/kg | 100 mg/kg | reduced cholesterol lowering effect | 
CCOC(=O)COc1ccccc1Cc1ccc(Cl)cc1 [Example VI] | 3000 mg/kg | 300 mg/kg | reduced cholesterol lowering effect | 
CCOC(=O)C(C)(CC)Oc1ccc(Cc2ccc(Cl)cc2)cc1 (stereo not drawn) [Substance A, ethyl ester of 2methyl-2-4(4chlorobenzyl)-phenoxy-butyric acid, reference compound] |  | 12.1 mg/kg |  | LD50 at 168 h ([2]; po): 8000 mg/kg
CCOC(=O)C(C)(C)Oc1ccc(Cl)cc1 [Substance B, Ethyl p-chlorophenoxyisobutyrate, reference compound] |  | 151 mg/kg |  | toxicity (in words) (mice [5]): relatively high toxicity; LD50 at 168 h [2, 6]: 2350 mg/kg
